Numbered stars: 1 amine (or outer) side, 2 acyl side, 3 side chain; on linkers, the order of the positions; unused ones are H or OH. Square brackets hold non-standard residues; d marks the D form. Peptide text beside a SMILES is read from it. * marks the point of attachment. Gly(piperidin-4-yl) = N[C@H](C(=O)O)C1CCNCC1; 2Nal = N[C@@H](Cc1ccc2ccccc2c1)C(=O)O; Isobutyloxycarbonyl = CC(C)COC(=O)*; Gly(cPent) = N[C@H](C(=O)O)C1CCCC1; X1 = CCCC(N[*:1])C(=O)C(=O)[*:2]; hPhe = N[C@@H](CCc1ccccc1)C(=O)O; Aad = N[C@@H](CCCC(=O)O)C(=O)O; Cha = N[C@@H](CC1CCCCC1)C(=O)O; Chg = N[C@H](C(=O)O)C1CCCCC1; Phg = N[C@H](C(=O)O)c1ccccc1; Tle = CC(C)(C)[C@H](N)C(=O)O; hSer = N[C@@H](CCO)C(=O)O; Nle = CCCC[C@H](N)C(=O)O; Boc = CC(C)(C)OC(=O)*; OBn = c1ccc(CO*)cc1; Bn = c1ccc(C*)cc1; OtBu = CC(C)(C)O*; tBu = CC(C)(C)*
Target: NS3 (Hepatitis C virus, UniProt A3EZJ3)
Assay: Inhibitory activity against Hepatitis C virus NS3 serine protease in continuous spectrophotometric assay
Parameters: species or system Hepacivirus hominis

Chain of NS3 (A3EZJ3 whole entry): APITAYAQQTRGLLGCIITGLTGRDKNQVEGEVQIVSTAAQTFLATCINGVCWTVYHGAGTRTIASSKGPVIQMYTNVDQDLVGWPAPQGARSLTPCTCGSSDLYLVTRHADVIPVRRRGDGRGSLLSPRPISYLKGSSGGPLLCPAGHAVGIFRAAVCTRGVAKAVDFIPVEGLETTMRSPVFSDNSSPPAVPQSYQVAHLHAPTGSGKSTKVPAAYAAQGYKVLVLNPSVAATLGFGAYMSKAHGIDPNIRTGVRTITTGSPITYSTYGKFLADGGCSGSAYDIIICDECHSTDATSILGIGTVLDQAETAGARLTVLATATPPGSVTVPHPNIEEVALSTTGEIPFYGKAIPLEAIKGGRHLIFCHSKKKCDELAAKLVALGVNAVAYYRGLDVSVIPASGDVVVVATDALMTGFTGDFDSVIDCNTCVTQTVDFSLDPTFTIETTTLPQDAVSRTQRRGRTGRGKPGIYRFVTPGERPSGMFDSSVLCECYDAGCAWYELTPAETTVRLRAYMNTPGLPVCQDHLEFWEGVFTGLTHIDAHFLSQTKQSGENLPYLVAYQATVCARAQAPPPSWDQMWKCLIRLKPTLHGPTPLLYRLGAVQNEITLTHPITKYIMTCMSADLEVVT

Compound | Ki
CCCC(NC(=O)[C@H](CC(C)C)NC(=O)[C@@H](NC(=O)OCC(C)C)C1CCCCC1)C(=O)C(=O)NCC(=O)N[C@H](C(=O)O)C1CCCC1 (some centres not stated) (Isobutyloxycarbonyl-[Chg]L[X1]G[Gly(cPent)]-OH) | 0.33 µM
CCCC(NC(=O)[C@@H]1CCCN1C(=O)[C@@H](NC(=O)OCC(C)C)C(C)C)C(=O)C(=O)NCC(=O)N[C@@H](Cc1ccccc1)C(N)=O (some centres not stated) (Isobutyloxycarbonyl-VP[X1]GF-NH2) | 15 µM
CCCC(NC(=O)[C@H](CC(C)C)NC(=O)[C@@H](NC(=O)OCC(C)C)C1CCCCC1)C(=O)C(=O)NCC(=O)N[C@H](C(=O)OC(C)(C)C)c1ccccc1 (some centres not stated) (Isobutyloxycarbonyl-[Chg]L[X1]G[Phg]-OtBu) | 0.65 µM
CCCC(NC(=O)[C@@H]1CCCN1C(=O)[C@@H](NC(=O)OCC(C)C)C(C)C)C(=O)C(=O)NCC(=O)N[C@@H](CC(=O)O)C(=O)O (some centres not stated) (Isobutyloxycarbonyl-VP[X1]GD-OH) | > 100 µM
CCCC(NC(=O)[C@@H]1CCCN1C(=O)[C@@H](NC(=O)OCC(C)C)C(C)C)C(=O)C(=O)NCC(=O)N[C@@H](CCc1ccccc1)C(N)=O (some centres not stated) (Isobutyloxycarbonyl-VP[X1]G[hPhe]-NH2) | 6.7 µM
CCCC(NC(=O)[C@H](CC(C)C)NC(=O)[C@@H](NC(=O)OC(C)(C)C)C1CCCCC1)C(=O)C(=O)NCC(=O)N[C@H](C(=O)OCc1ccccc1)c1ccccc1 (some centres not stated) (Boc-[Chg]L[X1]G[Phg]-OBn) | 0.6 µM
CCCC(NC(=O)[C@@H]1CCCN1C(=O)[C@@H](NC(=O)OCC(C)C)C(C)C)C(=O)C(=O)NCC(=O)N[C@@H](COCc1ccccc1)C(N)=O (some centres not stated) (Isobutyloxycarbonyl-VP[X1]GS(Bn)-NH2) | 3.5 µM
CCCC(NC(=O)[C@@H]1CCCN1C(=O)[C@@H](NC(=O)OCC(C)C)C(C)C)C(=O)C(=O)NCC(=O)N[C@@H](CCO)C(N)=O (some centres not stated) (Isobutyloxycarbonyl-VP[X1]G[hSer]-NH2) | 111 µM
CCCC(NC(=O)[C@H](CC(C)C)NC(=O)[C@@H](NC(=O)OC(C)(C)C)C1CCCCC1)C(=O)C(=O)NCC(=O)N[C@H](C(=O)O)c1ccccc1 (some centres not stated) (Boc-[Chg]L[X1]G[Phg]-OH) | 0.098 µM
CCCC(NC(=O)[C@@H]1CCCN1C(=O)[C@@H](NC(=O)OCC(C)C)C(C)C)C(=O)C(=O)NCC(=O)N[C@H](C(=O)OC)[C@@H](C)CC (some centres not stated) (Isobutyloxycarbonyl-VP[X1]GI-OMe) | 15 µM
CCCC(NC(=O)[C@@H]1CCCN1C(=O)[C@@H](NC(=O)OCC(C)C)C(C)C)C(=O)C(=O)NCC(=O)N[C@@H](CC(=O)OC)C(=O)OC (some centres not stated) (Isobutyloxycarbonyl-VP[X1]GD(OMe)-OMe) | 55 µM
CCCC(NC(=O)[C@@H]1CCCN1C(=O)[C@@H](NC(=O)OCC(C)C)C(C)C)C(=O)C(=O)NCC(=O)N[C@@H](Cc1ccc2ccccc2c1)C(N)=O (some centres not stated) (Isobutyloxycarbonyl-VP[X1]G[2Nal]-NH2) | 12 µM
CCCC(NC(=O)[C@H](CC(C)C)NC(=O)[C@@H](NC(=O)OCC(C)C)C1CCCCC1)C(=O)C(=O)NCC(=O)N[C@H](C(=O)O)C1CCN(C(=O)OC(C)(C)C)CC1 (some centres not stated) | 3.3 µM
CCCC(NC(=O)[C@@H]1CCCN1C(=O)[C@@H](NC(=O)OCC(C)C)C(C)C)C(=O)C(=O)NCC(=O)N[C@@H](CCCCN)C(N)=O (some centres not stated) (Isobutyloxycarbonyl-VP[X1]GK-NH2) | 82 µM
CCCC(NC(=O)[C@@H]1CCCN1C(=O)[C@@H](NC(=O)OCC(C)C)C(C)C)C(=O)C(=O)NCC(=O)N[C@@H](CCC(=O)O)C(=O)O (some centres not stated) (Isobutyloxycarbonyl-VP[X1]GE-OH) | > 100 µM
CCCC(NC(=O)[C@@H]1CCCN1C(=O)[C@@H](NC(=O)OCC(C)C)C(C)C)C(=O)C(=O)NCC(=O)N[C@@H](CCCC(=O)O)C(N)=O (some centres not stated) (Isobutyloxycarbonyl-VP[X1]G[Aad]-NH2) | 18 µM

Compound | Ki
CCCC(NC(=O)[C@@H]1CCCN1C(=O)[C@@H](NC(=O)OC(C)(C)C)C1CCCCC1)C(=O)C(=O)NCC(=O)NCc1ccccc1 (some centres not stated) | 45 µM
CCCC(NC(=O)[C@H](CC(C)C)NC(=O)[C@@H](NC(=O)OCC(C)C)C1CCCCC1)C(=O)C(=O)NCC(=O)N[C@@H](CC(=O)O)C(N)=O (some centres not stated) (Isobutyloxycarbonyl-[Chg]L[X1]GD-NH2) | 8.4 µM
CCCC(NC(=O)[C@@H]1CCCN1C(=O)[C@@H](NC(=O)OCC(C)C)C(C)C)C(=O)C(=O)NCC(=O)N[C@H](C(=O)O)[C@@H](C)CC (some centres not stated) (Isobutyloxycarbonyl-VP[X1]GI-OH) | 15 µM
CCCC(NC(=O)[C@H](CC(C)C)NC(=O)[C@@H](NC(=O)OCC(C)C)C1CCCCC1)C(=O)C(=O)NCC(=O)N[C@H](C(=O)O)c1ccccc1 (some centres not stated) (Isobutyloxycarbonyl-[Chg]L[X1]G[Phg]-OH) | 0.12 µM
CCCC(NC(=O)[C@H](CC(C)C)NC(=O)[C@@H](NC(=O)OCC(C)C)C1CCCCC1)C(=O)C(=O)NCC(=O)N[C@H](C(=O)O)C1CCNCC1 (some centres not stated) (Isobutyloxycarbonyl-[Chg]L[X1]G[Gly(piperidin-4-yl)]-OH) | 6.4 µM
CCCC(NC(=O)[C@@H]1CCCN1C(=O)[C@@H](NC(=O)OCC(C)C)C1CCCCC1)C(=O)C(=O)NCC(=O)N[C@H](C(N)=O)c1ccccc1 (some centres not stated) (Isobutyloxycarbonyl-[Chg]P[X1]G[Phg]-NH2) | 0.36 µM
CCCC[C@H](NC(=O)CNC(=O)C(=O)C(CCC)NC(=O)[C@H](CC(C)C)NC(=O)[C@@H](NC(=O)OCC(C)C)C1CCCCC1)C(N)=O (some centres not stated) (Isobutyloxycarbonyl-[Chg]L[X1]G[Nle]-NH2) | 0.28 µM
CCCC(NC(=O)[C@@H]1CCCN1C(=O)[C@@H](NC(=O)OCC(C)C)C(C)C)C(=O)C(=O)NCC(=O)N[C@H](C(N)=O)C1CCCCC1 (some centres not stated) (Isobutyloxycarbonyl-VP[X1]G[Chg]-NH2) | 2.6 µM
CCCC(NC(=O)[C@H](CC(C)C)NC(=O)[C@@H](NC(=O)OCC(C)C)C1CCCCC1)C(=O)C(=O)NCC(=O)N[C@@H](COC(C)(C)C)C(N)=O (some centres not stated) (Isobutyloxycarbonyl-[Chg]L[X1]GS(tBu)-NH2) | 0.46 µM
CCCC(NC(=O)[C@H](CC(C)C)NC(=O)[C@@H](NC(=O)OCC(C)C)C1CCCCC1)C(=O)C(=O)NCC(=O)N[C@H](C(N)=O)C(C)C (some centres not stated) (Isobutyloxycarbonyl-[Chg]L[X1]GV-NH2) | 2.6 µM
CCCC(NC(=O)[C@@H]1CCCN1C(=O)[C@@H](NC(=O)OCC(C)C)C(C)C)C(=O)C(=O)NCC(=O)N[C@@H](CCC(=O)OCC)C(=O)OC (some centres not stated) (Isobutyloxycarbonyl-VP[X1]GE(OEt)-OMe) | 20 µM
CCCC(NC(=O)[C@@H]1CCCN1C(=O)[C@@H](NC(=O)OCC(C)C)C(C)C)C(=O)C(=O)NCC(=O)N[C@@H](CC1CCCCC1)C(N)=O (some centres not stated) (Isobutyloxycarbonyl-VP[X1]G[Cha]-NH2) | 8 µM
CCCC(NC(=O)[C@H](CC(C)C)NC(=O)[C@@H](NC(=O)OC(C)(C)C)C1CCCCC1)C(=O)C(=O)NCC(=O)NCc1ccccc1 (some centres not stated) | 81 µM
CCCC(NC(=O)[C@@H]1CCCN1C(=O)[C@@H](NC(=O)OCC(C)C)C(C)C)C(=O)C(=O)NCC(=O)N[C@H](C(N)=O)c1ccccc1 (some centres not stated) (Isobutyloxycarbonyl-VP[X1]G[Phg]-NH2) | 2.1 µM
CCCC(NC(=O)[C@@H]1CCCN1C(=O)[C@@H](NC(=O)OCC(C)C)C(C)C)C(=O)C(=O)NCC(=O)N[C@H](C(N)=O)C(C)(C)C (some centres not stated) (Isobutyloxycarbonyl-VP[X1]G[Tle]-NH2) | 53 µM
CCCC(NC(=O)[C@@H]1CCCN1C(=O)[C@@H](NC(=O)OCC(C)C)C(C)C)C(=O)C(=O)NCC(=O)N[C@@H](CC(C)C)C(N)=O (some centres not stated) (Isobutyloxycarbonyl-VP[X1]GL-NH2) | 16 µM

Source: ChEMBL document CHEMBL1141039, “Hepatitis C virus NS3-4A serine protease inhibitors: SAR of P'2 moiety with improved potency” (Bioorg Med Chem Lett, 2005)
